Measured values: US20180369327A1, “METHOD FOR TREATING OR PREVENTING OSTEOARTHRITIS” (Dong-A University Research Foundation for Industry-Academy …, priority 2017, published 2018)
“Also recorded” adds a separate entry of the source.

Columns and labels:
[1] = system: rat articular chondrocytes; experiment: Cell viability assay (automated trypan blue exclusion); format: cell-based; conditions: n=4
Description: Rat articular chondrocytes for primary culture were isolated from knee joint cartilage slices by enzymatic digestion for 1 h with 0.2% type II collagenase (381 units/mg) in DMEM. After the isolated cells were collected by brief centrifugation, they were resuspended in DMEM supplemented with 10% (v/v) FBS, […] streptomycin and 50 units/ml penicillin (Gibco). The cells were plated on culture dishes at a density of 5×10^4 cells/cm^2. The medium was replaced every 2 days, and they reached confluence after approximately 5 days in culture. In each experiment, the cells from three animals were pooled and analyzed three times.
FFA were dissolved in absolute ethanol at a concentration of 500 mM and diluted to final concentrations of FFAs with the appropriate concentration of 1% (w/v) FFA-free BSA. Controls were incubated with equal concentrations of FFA-free BSA containing ethanol. To examine the effect of several chemicals, cells were pretreated with 150 μg/mL DRB or 30 μM cilostazol for 24 h or 25 ng/ml TNF-α for 3 h before FFA treatment.
siRNA transfection or combination treatment with FFAs. Transfection of siRNA was performed with the use of siPORT Amine and Opti-MEM media. Cells grown to a confluence of 40% to 50% in six-well plates were transfected with 100 nM final siRNA concentration per well. Transfection mixture was added to each well, and incubation occurred for 4 h. Then 2 ml of growth medium was added, and cells were incubated for another 20 h. After siRNA transfection medium was removed, each well was washed in PBS solution. Cells were treated with FFAs for 24 hours.
Recombinant adenoviral STAMP2 was prepared as described previously34. Cells (1×10^7) were infected with recombinant adenoviral STAMP2 at multiplicities of infection (MOI) of 500, 1000 and 1500 to the medium.
An automated trypan blue exclusion assay was undertaken. Total cells and trypan bluestained (i.e., nonviable) cells were counted, and the percentage of nonviable cells was calculated using the Vi-Cell cell counter (Beckman Coulter, Miami, Fla., USA).

STAMP2 = experiment: Western blot of STAMP2 protein in articular chondrocytes; format: cell-based, rat; conditions: n=4
Description: (§1) Rat articular chondrocytes for primary culture were isolated from knee joint cartilage slices by enzymatic digestion for 1 h with 0.2% type II collagenase (381 units/mg) in DMEM. After the isolated cells were collected by brief centrifugation, they were resuspended in DMEM supplemented with 10% (v/v) FBS, […] streptomycin and 50 units/ml penicillin (Gibco). The cells were plated on culture dishes at a density of 5×10^4 cells/cm^2. The medium was replaced every 2 days, and they reached confluence after approximately 5 days in culture. In each experiment, the cells from three animals were pooled and analyzed three times. FFA were dissolved in absolute ethanol at a concentration of 500 mM and diluted to final concentrations of FFAs with the appropriate concentration of 1% (w/v) FFA-free BSA. Controls were incubated with equal concentrations of FFA-free BSA containing ethanol. […] Cell (2×10^6) were washed twice with ice-cold PBS. Cells were resuspended in lysis buffer [200 ll of icecold solubilizing buffer (300 mM NaCl, 50 mM Tris-Cl (pH 7.6), 0.5% Triton X-100, protease inhibitor cocktail)] and incubated at 4° C. for 30 min. The lysates were centrifuged at 14,000 rpm for 20 min at 4° C. The protein concentrations of the cell lysates were measured with the Bradford protein assay reagent (Bio-Rad). Then, 50 μg of proteins was loaded onto 15 SDS-PAGE. The separated proteins were transferred to nitrocellulose membranes (Amersham Pharmacia Biotech, Piscataway, N.J., USA) and probed with each antibody. Immunostaining with the antibodies was carried out using the Super Signal West Pico enhanced chemiluminescence substrate and detected with LAS-3000PLUS.

[2] = system: lipid droplets (LD) in rat articular chondrocytes; experiment: Lipid droplet staining (Nile red, BODIPY), confocal microscopy and quantification; format: cell-based
Description: Rat articular chondrocytes for primary culture were isolated from knee joint cartilage slices by enzymatic digestion for 1 h with 0.2% type II collagenase (381 units/mg) in DMEM. After the isolated cells were collected by brief centrifugation, they were resuspended in DMEM supplemented with 10% (v/v) FBS, […] streptomycin and 50 units/ml penicillin (Gibco). The cells were plated on culture dishes at a density of 5×10^4 cells/cm^2. The medium was replaced every 2 days, and they reached confluence after approximately 5 days in culture. In each experiment, the cells from three animals were pooled and analyzed three times. FFA were dissolved in absolute ethanol at a concentration of 500 mM and diluted to final concentrations of FFAs with the appropriate concentration of 1% (w/v) FFA-free BSA. Controls were incubated with equal concentrations of FFA-free BSA containing ethanol. […] Cells cultured on a coverslip were incubated with diluted Nile red or BODIPY 493/503. Some sections were double-labelled with TUNEL and BODIPY 493/503 and counterstained with Hoechst 33342. Fluorescence images were observed and analyzed using a Zeiss LSM 510 laser-scanning confocal microscope (Goettingen, Germany). Twenty cells from each experiment were observed and auantification of fluorescence intensity of the confocal images were obtained with the use of ImageJ software. Fluorescence intensity was expressed as AU.

[3] = system: rat articular chondrocytes; experiment: Phase contrast microscopy of oleate-induced cell death; format: cell-based; conditions: 25 ng/ml TNF-α, 1.5 mM oleate; n=4
FSP27 = experiment: Western blot of FSP27 protein in articular chondrocytes; format: cell-based, rat; conditions: n=4
Description: as §1

caspase-3 and -7 = experiment: Western blot of apoptosis-related factors (caspase-3 and -7 activation); format: cell-based, rat; conditions: 100 μM DRB with 1 mM oleate; n=4
Description: as §1, with “The lysates were centrifuged at 14,000 rpm for 20 min at 4° C.” left out, “Then, 50 μg of proteins was loaded onto 15 SDS-PAGE. The separated proteins were transferred to nitrocellulose membranes (Amersham Pharmacia Biotech, Piscataway, N.J., USA) and probed with each antibody.” left out

[4] = system: rat articular chondrocytes; experiment: Total cytosol FFA content measurement; format: cell-based
Description: Cell were collected after treatment with trypsin (0.2% trypsin, 0.02% EDTA and 0.2% glucose in PBS) and pelleted by centrifugation (200×g for 5 min at 4° C.). Cell pellet was resuspended in ice-cold hypotonic lysis medium containing 20 mM Tris-HCl, pH 7.4 and 1 mM EDTA. Cells were homogenized with a Dounce homogenizer and then centrifuged (800×g for 5 min at 4° C.). The post-nuclear supernatant fraction was ultra-centrifuged ([…] for 5 min at 4° C.) using Beckman Table-top ultracentrifuge. LD fraction with the distinct white band on the preparation was removed with a pipetman and LD-free cytosol was used for FFA measurement. Cytosol FFA levels were measured using a commercial free fatty acid quantification kit from Abcam (ab65341).

## TNF-α
[1]; 25 ng/ml TNF-α, 1.5 mM oleate
  effect on oleate-induced cell death (viability): completely reversed 1.5 mM oleate-induced cell death; also recorded: prevented 1.5 mM oleate-induced cell death
STAMP2; 25 ng/ml TNF-α, 1.5 mM oleate
  effect on oleate-induced downregulation of STAMP2 protein: completely reversed the 1.5 mM oleate-induced downregulation of the expression level of STAMP2 protein; also recorded: reversed 1.5 mM oleate (0)-induced downregulation of STAMP2 protein
[2]; TNF-α, 1.5 mM oleate
  effect on oleate-induced reduction of LD size and total LD volume: completely reversed the 1.5 mM oleate-induced reduction in total LD volume; also recorded: reversed 1.5 mM oleate-induced reduction of LD size and total LD volume
[3]
  effect on oleate-induced cell death (phase contrast microscopy): prevented oleate-induced cell death

## zVAD-fmk
[1]; zVAD-fmk with 1.5 mM oleate
  effect on oleate-induced cell death (viability): significantly prevented 1.5 mM oleate-induced cell death

## OC[C@H]1O[C@@H](n2cnc3cc(Cl)c(Cl)cc32)[C@H](O)[C@@H]1O [DRB, 5,6-dichlorobenzimidazol riboside]
[1]; 0.4 mM oleate with 0.6 or 1.6 mM palmitate
  influence on lipotoxicity of oleate/palmitate combination (viability): reciprocal influences on lipotoxicity
STAMP2; DRB
  expression level of STAMP2: decreased
FSP27; 100 μM DRB with 1 mM oleate
  level of FSP27 protein: decreased the levels of FSP27 protein
FSP27; DRB
  expression level of FSP27: decreased
caspase-3 and -7
  activation of caspase-7 and -3: activated caspase-7 and -3
[2]; DRB in cells treated with 0.4 mM oleate and 0.6 mM palmitate
  LD accumulation: significantly reduced the LD accumulation
[2]; DRB pre-/co-treatment, 1 mM oleate
  LD size and LD accumulation: reversed oleate-induced LD enlargement; also recorded: reduces LD size and LD accumulation
[2]; co-treatment with DRB versus 1 mM oleate, n=4
  total LD volume: significantly decreased
[4]; 1.0 mM oleate with DRB versus without
  FFA level in the cytosol: significantly increased the FFA level in the cytosol
[4]; cells treated with 0.6 mM palmitate and 0.4 mM oleate, n=4
  FFA level in the cytosol: significantly increased the FFA level in the cytosol

## CCCCCCCCCCCCCCCCCC(=O)O [stearate, stearic acid]
[1]; FFA alone at 0.5 to 2 mM
  cell viability: significantly reduced cell viability
STAMP2; FFA at toxic concentrations
  expression level of STAMP2: reduced the expression level of STAMP2
